Tests used:
[1] = system: ciliated neurons in CA1 of the hippocampus of Tsc2 mutant mice; test: Ciliated neurons in brain of Tsc2 mutant mice (immunohistochemistry, manual cilia counting); format: in vivo, mouse; conditions: rapamycin 3 mg/kg i.p. every other day P7 until P56
Text: (§1) Neuronal cilia in TSC mouse models was examined with either a conditional deletion of TSC1 or TSC2 driven by the Synapsin-1 promoter, which results in loss of TSC1/2 proteins in post-mitotic neurons of the cortex and of the hippocampus. The TSC1/SynCre mice (Tsc1 mutant) have a shorter life span (median age postnatal day 35, P35), and they recapitulate many of the neurological manifestations of TSC, including seizures and presence of ectopic giant cells (Meikle et al., A mouse model of tuberous sclerosis: neuronal loss of Tsc1 causes dysplastic and ectopic neurons, reduced myelination, seizure activity, and limited survival; J Neurosci 27, 5546-5558 (2007)). […]
For histological analysis, animals were anesthetized (1 ml of 2.5% Avertin) and perfused transcardially with 4% PFA. […] Finally, the average percentage of neurons with cilia (NeuN^+/ACIII^+) was calculated in each of the images. […] The average percentage of SMI311^+ or SMI311^− with cilia was calculated. […] A threshold for cilia count was set such that only ACIII positive objects that measured longer than 1 μm were counted as cilia. All the imaging and the quantification were done in a blinded way. […] All quantifications were performed in a blinded fashion.

[2] = system: ciliated neurons in cortex and dentate gyrus of Tsc1 mutant mice; test: Ciliated neurons in brain of Tsc1 mutant mice (immunohistochemistry, manual cilia counting); format: in vivo, mouse; conditions: rapamycin 6 mg/kg i.p. every other day P7 until P21
Text: as §1
For histological analysis, animals were anesthetized (1 ml of 2.5% Avertin) and perfused transcardially with 4% PFA. […] Finally, the average percentage of neurons with cilia (NeuN^+/ACIII^+) was calculated in each of the images. […] The average percentage of SMI311^+ or SMI311^− with cilia was calculated. […] A threshold for cilia count was set such that only ACIII positive objects that measured longer than 1 μm were counted as cilia. All the imaging and the quantification were done in a blinded way. […]

With `CO[C@H]1C[C@@H]2CC[C@@H](C)[C@@](O)(O2)C(=O)C(=O)N2CCCC[C@H]2C(=O)O[C@H]([C@H](C)C[C@@H]2CC[C@@H](O)[C@H](OC)C2)CC(=O)[C@H](C)/C=C(\C)[C@@H](O)[C@@H](OC)C(=O)[C@H](C)C[C@H](C)/C=C/C=C/C=C/1C` [rapamycin] the ciliation defects [1] was “prevented” and the ciliation defects [2] was “prevented”.

From US20230218577A1, “USE OF HEAT SHOCK PROTEIN INHIBITORS FOR THE TREATMENT OF NEURODEVELOPMENTAL DISORDERS” (The Children's Medical Center Corporation, priority 2020, published 2023)
